Patent publication US20250084087A1, “BICYCLIC HETEROCYCLES AS MRGPRX2 ANTAGONISTS” (Incyte Corporation, priority 2023, published 2025)

How the values were obtained:
MRGPRX2 [1] = molecular target: T1, MRGPRX2 (Homo sapiens, UniProt Q96LB1); assay: MRGPRX2 IP1 HTRF assay; assay type: cell-based; design: host or cells: CHO-K1; conditions: CHO-K1 cells stably expressing human MRGPRX2; IP1 accumulation; agonist Cortistatin 14 1 μM
T1 sequence (Q96LB1 1-330): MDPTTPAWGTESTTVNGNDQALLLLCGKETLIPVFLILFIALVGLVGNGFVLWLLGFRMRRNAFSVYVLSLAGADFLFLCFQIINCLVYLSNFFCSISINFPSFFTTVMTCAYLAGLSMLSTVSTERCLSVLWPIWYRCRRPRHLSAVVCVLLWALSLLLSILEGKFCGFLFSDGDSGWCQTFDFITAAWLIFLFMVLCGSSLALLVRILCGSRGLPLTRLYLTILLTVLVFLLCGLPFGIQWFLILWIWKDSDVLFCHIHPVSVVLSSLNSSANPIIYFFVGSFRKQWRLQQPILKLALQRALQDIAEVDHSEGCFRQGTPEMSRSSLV
Text: Example B: MRGPRX2 IP1 HTRF Assay
This assay measures compound inhibition of myo-Inositol 1 phosphate (IP1) accumulation in CHO-K1 cells. Chinese hamster ovary (CHO-K1) cells stably expressing human MRGPRX2 were purchased from GenScript (Piscataway, NJ).
For the HTRF IP1 determination, an IP-One GqKit (Perkin Elmer Cisbio, Waltham, MA), which includes all reagents and buffers in this protocol, was used. The cells were maintained in culture medium (Ham's F-12K) containing 10% (v/v) FBS, and 200 μg/mL Zeocin. For the assay, the cells were harvested and resuspended in culture medium with 2% FBS and without Zeocin, then were passed through a 40 μm filter. Cells were added at 20000 cells in a 5 μL/well to a 384-well white small volume cell culture plate (Greiner VWR, Radnor, PA) which contained 50 nL/well of test compound serially diluted at a selected concentration range in DMSO. 5 μL/well of prepared 2× Stimulation Buffer2 was then added to plates and was incubated at 37° C. with 5% CO2 for 1 h. 5 μL/well of agonist Cortistatin 14 (Bio-TechneR&D Systems, Minneapolis, MN) in 1× Stimulation Buffer2, for a 1 μM final concentration, was then added to plates and incubated at 37° C. with 5% CO2 for 1 h. 6 μL/well of 1:20 diluted Detection Reagent Mix (d2 and Cryptate) was added to the plates and incubated for 1 h in the dark. Plates were read on the PHERAstar microplate reader (BMG Labtech Cary, NC) to determine the HTRF ratio of the acceptor and donor emission signals. The IP1 concentrations were calculated from a standard curve following the IP-One GQ kit instructions. Wells with DMSO only and wells with high concentration of reference antagonist were used as controls for normalization. Compound IC50 curves were globally fitted with 3- or 4-parameter Hill equation in a Genedata Screener (Genedata Basel, Switzerland).

MRGPRX2 [2] = molecular target: T1, MRGPRX2; assay: MRGPRX2 β-Arrestin recruitment assay (PathHunter); assay type: cell-based; design: host or cells: CHO-K1 (PathHunter); conditions: PathHunter CHO-K1 MRGPRX2 β-Arrestin cell line; agonist Cortistatin 14 0.25 μM
Text: Example C: MRGPRX2 P-Arrestin Assay
This assay measures compound inhibition of P-Arrestin recruitment, which is part of the G protein-independent pathway that results from the ligand-activated GPCR phosphorylation by specific GPCR kinases. The PathHunter CHO-K1 MRPGRX2 B-Arrestin Cell line stably expressing ProLink tagged MRGPRX2 and Enzyme Acceptor Tagged B-Arrestin was purchased from Eurofins DiscoverX, (Fremont, CA).
The cells were maintained in culture medium from the Europhins DiscoverX Cell Culture Kit-107 which includes FBS, hygromycin B and G418. For the assay, the cells were harvested and were resuspended with Cell Plating Reagent 2 (Eurofins DiscoverX). Cells were added 10000 cells in 25 μL/well to a 384-well black cell culture plate (Greiner VWR, Radnor, PA) which contained 125 nL/well of compound at a selected serially diluted concentration range or DMSO. The plate was incubated at 37° C. with 5% CO2 for 1 h. 2 μL/well of agonist Cortistatin 14 was diluted in Protein Dilution Buffer, (Eurofins DiscoverX) for a final concentration of 0.25 μM, was added and the plate was incubated at 37° C. with 5% CO2 for 90 min. 14 μL/well of Detection Reagent Mix (PathHunter Detection Kit, Eurofins DiscoverX) was added to the plates and further incubated for 1 h in the dark. Plates were read on the PHERAstar microplate reader (BMG Labtech Cary, NC) measuring luminescence 0.1 to 1 second per well. Data was normalized using DMSO only wells and wells with high concentration of reference antagonist as controls. Compound IC50 curves were globally fitted with 3- or 4-parameter Hill equation in a Genedata Screener (Genedata Basel, Switzerland).

## [2H]C([2H])([2H])NC(=O)N1CC(CNc2cccc3nc(C(F)(F)F)nn23)(c2ccc(F)cc2)C1 [Example 103, 3-(4-Fluorophenyl)-N-(methyl-d3)-3-(((2-(trifluoromethyl)-[1,2,4]triazolo[1,5-a]pyridin-5-yl)amino)methyl)azetidine-1-carboxamide]
MRGPRX2 [1]
  IC50: 0.1 to 100 nM
MRGPRX2 [2]
  IC50: 0.1 to 100 nM

## OCC1CC1(CNc1cc(C(F)(F)F)nc2cc(Br)nn12)c1ccccc1 (single isomer, unassigned) [Example 89, (2-(((2-Bromo-5-(trifluoromethyl)pyrazolo[1,5-a]pyrimidin-7-yl)amino)methyl)-2-phenylcyclopropyl)methanol]
MRGPRX2 [2]
  IC50: 100 to 1000 nM

## N#CC12CC(NC(=O)N3CC(CNc4cc(C(F)(F)F)nc5cc(C(F)(F)F)nn45)(c4cc(F)cc(F)c4)C3)(C1)C2 [Example 65, 3-(((2,5-Bis(trifluoromethyl)pyrazolo[1,5-a]pyrimidin-7-yl)amino)methyl)-N-(3-cyanobicyclo[1.1.1]pentan-1-yl-3-3,5-difluorophenyl)azetidine-1-carboxamide]
MRGPRX2 [1]
  IC50: 0.1 to 100 nM
MRGPRX2 [2]
  IC50: 0.1 to 100 nM

## Nc1nc(N2CCC(CNc3cc(C(F)F)nc4cc(C(F)(F)F)nn34)(c3ccccc3)CC2)n[nH]1 [Example 42, N-((1-(5-Amino-1H-1,2,4-triazol-3-yl)-4-phenylpiperidin-4-yl)methyl)-5-(difluoromethyl)-2-(trifluoromethyl)pyrazolo[1,5-a]pyrimidin-7-amine]
MRGPRX2 [1]
  IC50: 0.1 to 100 nM
MRGPRX2 [2]
  IC50: 0.1 to 100 nM

## [2H]C([2H])([2H])NC(=O)N1CC(CNc2cc(C3CCC3)nc3cc(C(F)(F)F)nn23)(c2ccc(F)cc2)C1 [Example 108, 3-(((5-Cyclobutyl-2-(trifluoromethyl)pyrazolo[1,5-a]pyrimidin-7-yl)amino)methyl)-3-(4-fluorophenyl)-N-(methyl-d3)azetidine-1-carboxamide]
MRGPRX2 [2]
  IC50: 100 to 1000 nM

## OC1CCC(CNc2cc(C(F)(F)F)nc3cc(Br)nn23)(c2ccncc2)C1 (racemic) [Example 86, 3-(((2-Bromo-5-(trifluoromethyl)pyrazolo[1,5-a]pyrimidin-7-yl)amino)methyl)-3-(pyridin-4-yl)cyclopentan-1-ol]
MRGPRX2 [2]
  IC50: 0.1 to 100 nM

## [2H]C([2H])([2H])NC(=O)N1CC(CNc2cccc3nc(C(F)(F)F)cn23)(c2ccc(F)cc2)C1 [Example 101, 3-(4-Fluorophenyl)-N-(methyl-d3)-3-(((2-(trifluoromethyl)imidazo[1,2-a]pyridin-5-yl)amino)methyl)azetidine-1-carboxamide]
MRGPRX2 [1]
  IC50: 0.1 to 100 nM
MRGPRX2 [2]
  IC50: 0.1 to 100 nM

## [2H]C([2H])([2H])c1cc(NCC2(c3ccc(F)cc3)CN(C(N)=O)C2)n2nc(C(F)(F)F)cc2n1 [Example 70, 3-(4-Fluorophenyl)-3-(((5-(methyl-d3)-2-(trifluoromethyl)pyrazolo[1,5-a]pyrimidin-7-yl)amino)methyl)azetidine-1-carboxamide]
MRGPRX2 [2]
  IC50: 0.1 to 100 nM

## NC(=O)C1(N)CC(CNc2cc(C(F)(F)F)nc3cc(C(F)(F)F)nn23)(c2ccc(F)cc2)C1 (stereo not shown) [Example 76, 1-Amino-3-(((2,5-bis(trifluoromethyl)pyrazolo[1,5-a]pyrimidin-7-yl)amino)methyl)-3-(4-fluorophenyl)cyclobutane-1-carboxamide]
MRGPRX2 [2]
  IC50: 0.1 to 100 nM

## CCc1cc(NCC2(c3ccc(F)cc3)CCC(N)(C#N)CC2)n2nc(C(F)(F)F)cc2n1 (stereo not shown) [Example 72, 1-Amino-4-(((5-ethyl-2-(trifluoromethyl)pyrazolo[1,5-a]pyrimidin-7-yl)amino)methyl)-4-(4-fluorophenyl)cyclohexane-1-carbonitrile]
MRGPRX2 [2]
  IC50: 0.1 to 100 nM

## [2H]C([2H])([2H])NC(=O)N1CC(CNc2cc(C3CC3)nc3cc(C(F)(F)F)nn23)(c2ccc(C(=O)N(C)C)cc2)C1 [Example 107, 3-(((5-Cyclopropyl-2-(trifluoromethyl)pyrazolo[1,5-a]pyrimidin-7-yl)amino)methyl)-3-(4-(dimethylcarbamoyl)phenyl)-N-(methyl-d3)azetidine-1-carboxamide]
MRGPRX2 [2]
  IC50: > 1000 nM

## CNC1CCC(CNc2cc(C(F)(F)F)nc3cc(Br)nn23)(c2cccnc2)C1 (stereo not shown) [Example 87, 2-Bromo-N-((3-(methylamino)-1-(pyridin-3-yl)cyclopentyl)methyl)-5-(trifluoromethyl)pyrazolo[1,5-a]pyrimidin-7-amine]
MRGPRX2 [2]
  IC50: 0.1 to 100 nM

## Cc1ccc(C2(CNc3cc(C(F)(F)F)nc4cc(C(F)(F)F)nn34)CN(S(N)(=O)=O)C2)cn1 [Example 97, 3-(((2,5-Bis(trifluoromethyl)pyrazolo[1,5-a]pyrimidin-7-yl)amino)methyl)-3-(6-methylpyridin-3-yl)azetidine-1-sulfonamide]
MRGPRX2 [2]
  IC50: 100 to 1000 nM

## NC(=O)N1CCC(CNc2nccc3nc(C(F)(F)F)cn23)(c2ccccc2)CC1 [Example 2, 4-Phenyl-4-(((2-(trifluoromethyl)imidazo[1,2-c]pyrimidin-5-yl)amino)methyl)piperidine-1-carboxamide]
MRGPRX2 [1]
  IC50: 100 to 1000 nM

## NC(=O)N1CC(CNc2cc(Cl)cc3nc(C(F)(F)F)nn23)(c2ccccc2)C1 [Example 79, 3-(((7-Chloro-2-(trifluoromethyl)-[1,2,4]triazolo[1,5-a]pyridin-5-yl)amino)methyl)-3-phenylazetidine-1-carboxamide]
MRGPRX2 [2]
  IC50: 0.1 to 100 nM

## CO[C@H]1C[C@](CNc2cc(C(F)(F)F)nc3cc(C(F)(F)F)nn23)(c2ccccc2)C1 [Example 75, N-(((1s,3s)-3-Methoxy-1-phenylcyclobutyl)methyl)-2,5-bis(trifluoromethyl)pyrazolo[1,5-a]pyrimidin-7-amine]
MRGPRX2 [2]
  IC50: 0.1 to 100 nM

## OC1CC(CNc2cc(C(F)(F)F)nc3nc(C(F)(F)F)cn23)(c2ccc(F)cc2)C1 (stereo not shown) [Example 80, 3-(((2,7-Bis(trifluoromethyl)imidazo[1,2-a]pyrimidin-5-yl)amino)methyl)-3-(4-fluorophenyl)cyclobutan-1-ol]
MRGPRX2 [2]
  IC50: 0.1 to 100 nM

## NC(=O)N1CCC(CNc2cc(Cl)nc3nc(C(F)(F)F)cn23)(c2ccccc2)CC1 [Example 1, 4-(((7-Chloro-2-(trifluoromethyl)imidazo[1,2-a]pyrimidin-5-yl)amino)methyl)-4-phenylpiperidine-1-carboxamide]
MRGPRX2 [1]
  IC50: 100 to 1000 nM

## OCC1CC1(CNc1cc(C(F)(F)F)nc2cc(Br)nn12)c1ccccn1 (single isomer, unassigned) [Example 88, (2-(((2-Bromo-5-(trifluoromethyl)pyrazolo[1,5-a]pyrimidin-7-yl)amino)methyl)-2-(pyridin-2-yl)cyclopropyl)methanol]
MRGPRX2 [2]
  IC50: > 1000 nM

## N#CC12CC(NC(=O)N3CC(CNc4cc(C(F)(F)F)nc5cc(C(F)(F)F)nn45)(c4ccc(F)cn4)C3)(C1)C2 [Example 64, 3-(((2,5-Bis(trifluoromethyl)pyrazolo[1,5-a]pyrimidin-7-yl)amino)methyl)-N-(3-cyanobicyclo[1.1.1]pentan-1-yl)-3-(5-fluoropyridin-2-yl)azetidine-1-carboxamide]
MRGPRX2 [2]
  IC50: 0.1 to 100 nM

## O=c1cc(N2CC(CNc3cc(C(F)(F)F)nc4cc(C(F)(F)F)nn34)(c3ccc(F)cc3)C2)ccn1C1CC1 [Example 51, 4-(3-(((2,5-Bis(trifluoromethyl)pyrazolo[1,5-a]pyrimidin-7-yl)amino)methyl)-3-(4-fluorophenyl)azetidin-1-yl)-1-cyclopropylpyridin-2(1H)-one]
MRGPRX2 [2]
  IC50: 0.1 to 100 nM
